These results are taken from paper PMC10961359, “Targeting hexokinase 2 for oral cancer therapy: structure-based design and validation of lead compounds” (Frontiers in Pharmacology, 2024).

Broadly, the inhibition is the share of the control response that was lost under treatment. Broadly, the IC50 is the concentration needed to halve the response being measured.

One experiment addresses T1, HK2 (Homo sapiens, UniProt P52789).
T1 construct: purchased Abcam ab211114
T1 sequence (P52789 1-917): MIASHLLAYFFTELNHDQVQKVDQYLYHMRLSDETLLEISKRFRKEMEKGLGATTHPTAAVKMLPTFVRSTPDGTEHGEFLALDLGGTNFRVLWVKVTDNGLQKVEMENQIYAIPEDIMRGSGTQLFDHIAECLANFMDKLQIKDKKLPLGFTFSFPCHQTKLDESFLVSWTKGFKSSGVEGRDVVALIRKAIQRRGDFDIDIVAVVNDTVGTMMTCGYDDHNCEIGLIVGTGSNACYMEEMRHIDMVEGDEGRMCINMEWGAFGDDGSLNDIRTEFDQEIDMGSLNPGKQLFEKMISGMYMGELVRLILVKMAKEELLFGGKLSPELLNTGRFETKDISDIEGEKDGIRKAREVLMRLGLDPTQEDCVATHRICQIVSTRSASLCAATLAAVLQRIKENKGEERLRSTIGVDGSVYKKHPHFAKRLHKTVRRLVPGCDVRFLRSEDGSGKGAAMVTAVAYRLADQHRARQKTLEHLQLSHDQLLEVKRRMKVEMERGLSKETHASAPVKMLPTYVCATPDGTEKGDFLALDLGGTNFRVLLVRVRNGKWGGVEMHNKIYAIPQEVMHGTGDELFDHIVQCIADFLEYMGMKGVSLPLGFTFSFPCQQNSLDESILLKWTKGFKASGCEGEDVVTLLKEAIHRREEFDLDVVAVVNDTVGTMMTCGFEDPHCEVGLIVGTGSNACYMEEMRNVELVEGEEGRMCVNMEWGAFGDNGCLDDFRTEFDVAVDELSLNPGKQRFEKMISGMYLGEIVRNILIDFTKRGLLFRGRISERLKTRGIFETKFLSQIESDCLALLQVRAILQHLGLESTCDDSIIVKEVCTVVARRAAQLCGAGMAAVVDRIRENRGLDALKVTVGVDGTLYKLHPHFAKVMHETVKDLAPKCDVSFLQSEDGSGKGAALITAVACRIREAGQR
Kind of experiment: HK2 enzyme inhibition assay (Abcam kit ab211114). It counts as biochemical. As to the method: The HK2 enzyme inhibition assay was performed using an HK2 inhibitor assay kit (Abcam, ab211114) according to the manufacturer’s instructions. Initially, 50 µM compound concentration was used to perform the enzyme activity inhibition studies, after which IC50 of the top leads were determined.
The hits derived from the docking study were sourced from either commercial suppliers or pre-existing compounds within our laboratory or were synthesized anew. The FaDu and Cal27 oral cancer cells were treated with the compounds for 72 h at concentrations of 3, 10, 30, and 100 μM. A post-treatment MTT assay was done to evaluate their antiproliferative activity. Table S2 represents the anti-proliferative and enzyme inhibitory activity of the compounds obtained as hits from the structure-based drug design strategy. […] Consequently, 50 μM of all the hit compounds were evaluated for their HK2 enzyme inhibitory activity. 50 μM of compounds were incubated with HK2 protein and the rate of reaction was assessed in kinetic mode (rate of conversion of NAD to NADH). The choice of 50 μM concentration was based primarily on MTT assays and GI50 calculation. The average GI50 values of the hit compounds against less sensitive FaDu cell line was approximately 50 μM. Considering this information, we reasoned that utilizing a concentration equivalent to the average GI50 would allow us to assess the maximum inhibitory effect of the compounds on HK2 enzyme activity. […] The same compounds have been previously reported by our team to have EGFR phosphorylation inhibitory potential and were coded as H2 (compound 14) and H10 (compound 11) ([Chakraborty et al., 2022]). […] Figures 1C,D show the lead compounds H2 and H10 at the active site of HK2 enzyme interacting via H-bonds with the amino acid residues.

Experiment [1] deals with EGFR tyrosine kinase phosphorylation in Cal27 cells. Kind of experiment: Western blot pEGFR in Cal27 lysates. It counts as cell-based. The note with it: Cal27, 30 µM, 4 h post-treatment. For orientation: A western blot detects proteins with antibodies after separation by electrophoresis.
In another experiment the test system is Cal27 cells. Kind of experiment: Cell cycle analysis (propidium iodide, flow cytometry), Cal27. It counts as cell-based. As to conditions: Cal27, 10 and 30 μM, 72 h. As to the method:
FaDu and Cal27 cells were treated with the test compounds (0.5 million cells per treatment) for 72 h, and harvested for cell cycle analysis (Cat# BD340242) and apoptosis analysis (Cat# BD556547) by flow cytometry according to manufacturer’s instructions.
To determine the effect of HK2 inhibition in the progression of the cell cycle, flow cytometric analysis of compound-treated FaDu and Cal27 cells was carried out 72 h post-treatment. Cell cycle analysis is carried out to quantify the DNA content and estimate the percentages of the cell population in different cell cycle phases via propidium iodide staining. […] To determine the apoptosis-inducing activity of HK2 inhibitors, 10 and 30 μM of compounds H2 and H10 treated FaDu and Cal27 cells were stained with annexin V conjugated with FITC, followed by propidium iodide staining.

The subject of a further experiment is Cal27 spheroids. Kind of experiment: 3D spheroid culture of Cal27 cells. It counts as cell-based. As for the experimental part:
Cal27 cells were seeded at a density of 10,000 cells per well in a 96-well plate coated with 1.5% agarose in incomplete medium. For the prophylactic treatment, medium containing the compounds was added to each well after 6 h of seeding. For treatment, compounds were added after 48 h of seeding. After incubation with the compounds, spheroids were imaged using phase-contrast microscopy to assess the morphology and size. Subsequently, the spheroids were pooled and dissociated into single cell suspension with trypsin for 10 min, washed with PBS and stained with propidium iodide (Cat# BD556547) to analyze the number of apoptotic cells using flow cytometry. For the analysis of spheroid images, each image was processed using ImageJ software where the threshold of each 8-bit image was adjusted to differentiate the darker spheroid area (the inner core) from the lighter spheroid area (the peripheral layers). Subsequently, the darker and lighter areas were measured in pixel square units using the ‘analyze particles’ option in ImageJ.
Cells plated in monolayer cultures might behave differently as compared to 3D cultures. The 3D cultures can better mimic the tumor development and serve as a better tool for drug screening ([Zanoni et al., 2016]). Therefore, spheroid cultures of Cal27 cells were prepared and treated with lead H2. […]

For the compound `COc1ccc(CNC(=O)c2nc3ccccc3s2)cc1O` [Compound 14, N-(3-hydroxy-4methoxybenzyl)benzo[d]thiazole-2-carboxamide], on HK2 (read-out: % inhibition of HK2 enzyme activity at 50 µM), the inhibition at 50 µM was 87%. In addition, the IC50 on HK2 (read-out: IC50 against HK2) is 2940 ± 200 nM. In addition, the “EGFR tyrosine kinase phosphorylation” value in experiment [1] is reported as “does not significantly impact”. For the same compound, the “effect on cell cycle progression” value in the experiment with Cal27 cells is reported as “G0/G1 phase arrest”. In addition, in the experiment with Cal27 spheroids (prophylactic and therapeutic treatment), the spheroid growth entry was “reduction of spheroid growth”. The “population of dead cells in spheroids” value in the experiment with Cal27 spheroids (propidium iodide staining at the end of the study) is on record as “increase in the population of dead cells”.
